This note sets out measurements from patent US10975093B2, “Fused 1,4-diazepines as BET protein degraders” (THE REGENTS OF THE UNIVERSITY OF MICHIGAN, priority 2016, dated 2021).

Common to all, as to type: cell-based
Test [1] relates to RS4; 11. Description: Cell growth inhibition, CellTiter-Glo Luminescent Cell Viability Assay, RS4;11. Conditions: Homo sapiens, 96 h, RS4;11 cells, 4 days incubation. On the procedure: (§1) Cell growth inhibitory activity of representative Compounds of the Disclosure was determined in various cell lines using CellTiter-Glo® Luminescent Cell Viability Assay. Cells were seeded in 384-well white opaque cell culture plates at a density of 2,000 cells/well with serially diluted compounds and incubated at 37° C. in an atmosphere of 95% air and 5% CO2 for 4 days. Cell viability was determined using the CellTiter-Glo® Luminescent Cell Viability Assay Kit (Promega, Madison, Wis.) according to the manufacture's instruction. Briefly, a volume of CellTiter-Glo® Reagent equal to the volume of cell culture medium was added to each well, and then the plates were incubated at room temperature for 10-20 minutes. The luminescent signal was measured using a Tecan Infinite M1000 multimode microplate reader (Tecan, Morrisville, N.C.). The half maximal inhibitory concentration (IC50) was calculated using the GraphPad Prism 5 software (GraphPad Software, La Jolla, Calif.).

Test [2] deals with MDA-MB-231. Description: Cell growth inhibition, CellTiter-Glo Luminescent Cell Viability Assay, MDA-MB-231. Conditions: Homo sapiens, MDA-MB-231 cells, 4 days incubation. The essentials:
(§2)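 IC50 values come from CellTiter-Glo ATP luminescence after a 4-day exposure to a compound dilution series. Seeding was 2,000 cells per well at 37° C under 5% CO2, with reagent read after 10-20 min at room temperature.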

For test [3], the system named is MDA-MB-468. Description: Cell growth inhibition, CellTiter-Glo Luminescent Cell Viability Assay, MDA-MB-468. Conditions: Homo sapiens, 96 h, MDA-MB-468 cells, 4 days incubation. The procedure: as §1
The subject of test [4] is MOLM-13. In words: Cell growth inhibition, CellTiter-Glo Luminescent Cell Viability Assay, MOLM-13. The conditions noted are these: Homo sapiens, MOLM-13 cells, 4 days incubation. The essentials: as §2

As for `Cc1c(C#Cc2cn(CCCC#Cc3cccc4c3CN(C3CCC(=O)NC3=O)C4=O)nn2)sc2c1C(c1ccc(Cl)cc1)=NCc1nnc(C)n1-2` (stereo not drawn) [Cpd. No. 1, 3-(4-(5-(4-((4-(4-chlorophenyl)-3,9-dimethyl-6H-thieno[3,2-f][1,2,4]triazolo[4,3-a][1,4]diazepin-2-yl)ethynyl)-1H-1,2,3-triazol-1-yl)pent-1-yn-1-yl)-1-oxoisoindolin-2-yl)piperidine-2,6-dione], the IC50 in test [1] amounted to 0.25 nM; in test [2] (96 h) it was 8.1 nM; in test [3], 10 nM; in test [4] (96 h) it was 1.16 nM.
`Cc1c(C#Cc2cn(CCCC#Cc3cccc4c3CN(C3CCC(=O)NC3=O)C4=O)nn2)sc2c1C(c1ccc(Cl)cc1)=N[C@@H](C)c1nnc(C)n1-2` (stereo partly drawn) [Cpd. No. 2, 3-(4-(5-(4-(((S)-4-(4-chlorophenyl)-3,6,9-trimethyl-6H-thieno[3,2-f][1,2,4]triazolo[4,3-a][1,4]diazepin-2-yl)ethynyl)-1H-1,2,3-triazol-1-yl)pent-1-yn-1-yl)-1-oxoisoindolin-2-yl)piperidine-2,6-dione]: the IC50 in test [1] is under 0.0015 nM; in test [2] (96 h), 0.19 nM; in test [3] it was 0.27 nM; in test [4] (96 h), 0.4 nM.
With `Cc1c(C#Cc2cn(CCCCCc3cccc4c3CN(C3CCC(=O)NC3=O)C4=O)nn2)sc2c1C(c1ccc(Cl)cc1)=NCc1nnc(C)n1-2` (stereo not drawn) [Cpd. No. 3, 3-(4-(5-(4-((4-(4-chlorophenyl)-3,9-dimethyl-6H-thieno[3,2-f][1,2,4]triazolo[4,3-a][1,4]diazepin-2-yl)ethynyl)-1H-1,2,3-triazol-1-yl)pentyl)-1-oxoisoindolin-2-yl)piperidine-2,6-dione], the IC50 came out at 0.27 nM in test [1], 3.5 nM in test [2] (96 h), 3.1 nM in test [3] and 1 nM in test [4] (96 h).
For `Cc1c(C#Cc2cn(CCCCCc3cccc4c3CN(C3CCC(=O)NC3=O)C4=O)nn2)sc2c1C(c1ccc(Cl)cc1)=N[C@@H](C)c1nnc(C)n1-2` (stereo partly drawn) [Cpd. No. 4, 3-(4-(5-(4-(((S)-4-(4-chlorophenyl)-3,6,9-trimethyl-6H-thieno[3,2 f][1,2,4]triazolo[4,3-a][1,4]diazepin-2-yl)ethynyl)-1H-1,2,3-triazol-1-yl)pentyl)-1-oxoisoindolin-2-yl)piperidine-2,6-dione] the same measures were under 0.0015 nM, under 0.015 nM, under 0.015 nM and 0.3 nM.
On the same counts, the results for `Cc1c(C#Cc2cn(CCCCNc3cccc4c3CN(C3CCC(=O)NC3=O)C4=O)nn2)sc2c1C(c1ccc(Cl)cc1)=NCc1nnc(C)n1-2` (stereo not drawn) [Cpd. No. 5, 3-(4-((4-(4-((4-(4-chlorophenyl)-3,9-dimethyl-6H-thieno[3,2-f][1,2,4]triazolo[4,3-a][1,4]diazepin-2-yl)ethynyl)-1H-1,2,3-triazol-1-yl)butyl)amino)-1-oxoisoindolin-2-yl)piperidine-2,6-dione] are 0.29 nM, 22.8 nM, 26.1 nM and 3.6 nM.
As to `Cc1c(C#Cc2cn(CCCCNc3cccc4c3CN(C3CCC(=O)NC3=O)C4=O)nn2)sc2c1C(c1ccc(Cl)cc1)=N[C@@H](C)c1nnc(C)n1-2` (stereo partly drawn) [Cpd. No. 6, 3-(4-((4-(4-(((S)-4-(4-chlorophenyl)-3,6,9-trimethyl-6H-thieno[3,2-f][1,2,4]triazolo[4,3-a][1,4]diazepin-2-yl)ethynyl)-1H-1,2,3-triazol-1-yl)butyl)amino)-1-oxoisoindolin-2-yl)piperidine-2,6-dione], the IC50 in test [1] was under 0.0015 nM; in test [2] (96 h) it was 2.3 nM; in test [3] it was 1.7 nM; in test [4] (96 h), 0.77 nM.
Regarding `Cc1c(C#Cc2ccc(CCCCNc3cccc4c3CN(C3CCC(=O)NC3=O)C4=O)cn2)sc2c1C(c1ccc(Cl)cc1)=NCc1nnc(C)n1-2` (stereo not drawn) [Cpd. No. 7, 3-(4-((4-(6-((4-(4-chlorophenyl)-3,9-dimethyl-6H-thieno[3,2-f][1,2,4]triazolo[4,3-a][1,4]diazepin-2-yl)ethynyl)pyridin-3-yl)butyl)amino)-1-oxoisoindolin-2-yl)piperidine-2,6-dione], the IC50 is 0.81 nM in test [1], 6.08 nM in test [2] (96 h), 10.7 nM in test [3] and 4.2 nM in test [4] (96 h).
Regarding `Cc1c(C#Cc2ccc(CCCCNc3cccc4c3CN(C3CCC(=O)NC3=O)C4=O)cn2)sc2c1C(c1ccc(Cl)cc1)=N[C@@H](C)c1nnc(C)n1-2` (stereo partly drawn) [Cpd. No. 8, 3-(4-((4-(6-(((S)-4-(4-chlorophenyl)-3,6,9-trimethyl-6H-thieno[3,2-f][1,2,4]triazolo[4,3-a][1,4]diazepin-2-yl)ethynyl)pyridin-3-yl)butyl)amino)-1-oxoisoindolin-2-yl)piperidine-2,6-dione], the 50% inhibitory concentration (IC50) came to 0.19 nM in test [1], 0.17 nM in test [2] (96 h), 0.65 nM in test [3] and 0.26 nM in test [4] (96 h).
In the case of `Cc1c(C#Cc2ccc(CCCCOc3cccc4c3C(=O)N(C3CCC(=O)NC3=O)C4=O)cn2)sc2c1C(c1ccc(Cl)cc1)=NCc1nnc(C)n1-2` (stereo not drawn) [Cpd. No. 9, 4-(4-(6-((4-(4-chlorophenyl)-3,9-dimethyl-6H-thieno[3,2-f][1,2,4]triazolo[4,3-a][1,4]diazepin-2-yl)ethynyl)pyridin-3-yl)butoxy)-2-(2,6-dioxopiperidin-3-yl)isoindoline-1,3-dione], the 50% inhibitory concentration (IC50) in test [1] stood at 2.3 nM; in test [2] (96 h), 20.4 nM; in test [3], 33 nM; in test [4] (96 h), 19 nM.
On the same counts, the results for `Cc1c(C#Cc2ccc(CCCCOc3cccc4c3C(=O)N(C3CCC(=O)NC3=O)C4=O)cn2)sc2c1C(c1ccc(Cl)cc1)=N[C@@H](C)c1nnc(C)n1-2` (stereo partly drawn) [Cpd. No. 10, 4-(4-(6-(((S)-4-(4-chlorophenyl)-3,6,9-trimethyl-6H-thieno[3,2-f][1,2,4]triazolo[4,3-a][1,4]diazepin-2-yl)ethynyl)pyridin-3-yl)butoxy)-2-(2,6-dioxopiperidin-3-yl)isoindoline-1,3-dione] are 0.26 nM, 1.6 nM, 5.2 nM and 2.5 nM.
Turning to `Cc1c(C#Cc2ccc(OCCCCc3cccc4c3CN(C3CCC(=O)NC3=O)C4=O)cn2)sc2c1C(c1ccc(Cl)cc1)=NCc1nnc(C)n1-2` (stereo not drawn) [Cpd. No. 11, 3-(4-(4-((6-((4-(4-chlorophenyl)-3,9-dimethyl-6H-thieno[3,2-f][1,2,4]triazolo[4,3-a][1,4]diazepin-2-yl)ethynyl)pyridin-3-yl)oxy)butyl)-1-oxoisoindolin-2-yl)piperidine-2,6-dione], the IC50 in test [2] (96 h) stood at 18.1 nM; in test [3] it was 51 nM; in test [4] (96 h), 11.4 nM.
Consider `Cc1c(C#Cc2ccc(OCCCCc3cccc4c3CN(C3CCC(=O)NC3=O)C4=O)cn2)sc2c1C(c1ccc(Cl)cc1)=N[C@@H](C)c1nnc(C)n1-2` (stereo partly drawn) [Cpd. No. 12, 3-(4-(4-((6-(((S)-4-(4-chlorophenyl)-3,6,9-trimethyl-6H-thieno[3,2-f][1,2,4]triazolo[4,3-a][1,4]diazepin-2-yl)ethynyl)pyridin-3-yl)oxy)butyl)-1-oxoisoindolin-2-yl)piperidine-2,6-dione], for which the results for the IC50 in test [2] (96 h), in test [3] and in test [4] (96 h) were 0.86 nM, 3 nM and 1.2 nM, respectively.
For the compound `Cc1c(C#Cc2ccc(CCCC#Cc3cccc4c3CN(C3CCC(=O)NC3=O)C4=O)cn2)sc2c1C(c1ccc(Cl)cc1)=NCc1nnc(C)n1-2` (stereo not drawn) [Cpd. No. 13, 3-(4-(5-(6-((4-(4-chlorophenyl)-3,9-dimethyl-6H-thieno[3,2-f][1,2,4]triazolo[4,3-a][1,4]diazepin-2-yl)ethynyl)pyridin-3-yl)pent-1-yn-1-yl)-1-oxoisoindolin-2-yl)piperidine-2,6-dione], the IC50 came out at 7.4 nM in test [2] (MDA-MB-231, 96 h); 32.4 nM in test [3]; 6.4 nM in test [4] (MOLM-13, 96 h).
For `Cc1c(C#Cc2ccc(CCCC#Cc3cccc4c3CN(C3CCC(=O)NC3=O)C4=O)cn2)sc2c1C(c1ccc(Cl)cc1)=N[C@@H](C)c1nnc(C)n1-2` (stereo partly drawn) [Cpd. No. 14, 3-(4-(5-(6-(((S)-4-(4-chlorophenyl)-3,6,9-trimethyl-6H-thieno[3,2-f][1,2,4]triazolo[4,3-a][1,4]diazepin-2-yl)ethynyl)pyridin-3-yl)pent-1-yn-1-yl)-1-oxoisoindolin-2-yl)piperidine-2,6-dione] the same measures were 0.18 nM, 1.1 nM and 0.24 nM.
As for `Cc1c(C#Cc2cnn(CCCCOc3cccc4c3C(=O)N(C3CCC(=O)NC3=O)C4=O)c2)sc2c1C(c1ccc(Cl)cc1)=N[C@@H](C)c1nnc(C)n1-2` (stereo partly drawn) [Cpd. No. 32, 4-(4-(4-(((S)-4-(4-chlorophenyl)-3,6,9-trimethyl-6H-thieno[3,2-f][1,2,4]triazolo[4,3-a][1,4]diazepin-2-yl)ethynyl)-1H-pyrazol-1-yl)butoxy)-2-(2,6-dioxopiperidin-3-yl)isoindoline-1,3-dione], the IC50 was 2.5 nM in test [2] (MDA-MB-231, 96 h) and 3.5 nM in test [3].
